Measured values: patent publication US20150074835A1, “TRANSGENIC MOUSE EXPRESSING HUMAN LIPOPROTEIN (A) WITH DISABLED VITAMIN C GENE AND ITS USE AS A DISEASE TREATMENT MODEL” (priority 2013, published 2015)

Test system: Lpa+Gulo (−/−) mouse
Experiment: Lipoprotein-cholesterol, apo(a) particle and apoB-100 particle modulation (SPIFE / IFE of sera) under ascorbic acid supplementation
Assay type: in vivo
Settings: 30 mg/L, 60 mg/L or 150 mg/L ascorbic acid in drinking water in addition to 500 ppm vitamin C in food (full supplementation); FIG. 6-8
Protocol: SPIFE Cholesterol Profiling (FIG. 2): The presence of complete Lp(a) lipoprotein particles in the Lp(a)+GULO(−/−) transgenic mouse serum was confirmed using the electrophoresis method with Helena (Beaumont, Tex.) SPIFE Cholesterol Profiling and Immunofixation electrophoresis (IFE). Immunofixation Electrophoresis (IFE) using the mouse sera was conducted on individual apo(a) (FIG. 3) containing particles and human apoB-100 containing particles (FIG. 4) as well, using human specific apo(a) and apoB-100 antibodies at Health Diagnostic Laboratory, Inc. (Richmond, Va.). The bands represent apo(a) and apoB-100 protein respectively in transgenic mouse and visualization of the same in serum derived from female and male mouse. Lipoprotein-cholesterol, Apo(a) particle, and ApoB-100 particle Modulation (FIG. 6, FIG. 7, and FIG. 8): The analysis was conducted on mouse sera from the Lpa+Gulo (−/−)mouse supplemented with either 30 mg/L, 60 mg/L or 150 mg/L of ascorbic acid provided in drinking water in addition to 500 ppm vitamin C provided in food (full supplementation). […] Sample order in FIGS. 6-8 correspond to the following key, with 30 vc referring to 30 mg/L Vitamin C group, 60 vc referring to 60 mg/L Vitamin C group, and sc referring to fully supplemented (150 mg/L Vitamin C+500 ppm Vitamin C in food) control group. The first three wells of each row were not used.

For O=C1O[C@H]([C@@H](O)CO)C(O)=C1O [ascorbate, ascorbic acid], the “modulation of the whole spectrum of lipoprotein cholesterols and/or lipoprotein particles in mouse sera” value was “could be modulated”.
